Measurements as given in PubChem BioAssay AID1671295.

Target: Receptor tyrosine-protein kinase erbB-4 (Homo sapiens) (UniProt Q15303)
Assay: inhibition of HER4 tyrosine kinase activity – biochemical, Z'-LYTE FRET, direct format, recombinant human, dose response (AID 1671295)
Conditions: recombinant ERBB4

Receptor tyrosine-protein kinase erbB-4 (Homo sapiens), sequence (Q15303 whole entry, looked up): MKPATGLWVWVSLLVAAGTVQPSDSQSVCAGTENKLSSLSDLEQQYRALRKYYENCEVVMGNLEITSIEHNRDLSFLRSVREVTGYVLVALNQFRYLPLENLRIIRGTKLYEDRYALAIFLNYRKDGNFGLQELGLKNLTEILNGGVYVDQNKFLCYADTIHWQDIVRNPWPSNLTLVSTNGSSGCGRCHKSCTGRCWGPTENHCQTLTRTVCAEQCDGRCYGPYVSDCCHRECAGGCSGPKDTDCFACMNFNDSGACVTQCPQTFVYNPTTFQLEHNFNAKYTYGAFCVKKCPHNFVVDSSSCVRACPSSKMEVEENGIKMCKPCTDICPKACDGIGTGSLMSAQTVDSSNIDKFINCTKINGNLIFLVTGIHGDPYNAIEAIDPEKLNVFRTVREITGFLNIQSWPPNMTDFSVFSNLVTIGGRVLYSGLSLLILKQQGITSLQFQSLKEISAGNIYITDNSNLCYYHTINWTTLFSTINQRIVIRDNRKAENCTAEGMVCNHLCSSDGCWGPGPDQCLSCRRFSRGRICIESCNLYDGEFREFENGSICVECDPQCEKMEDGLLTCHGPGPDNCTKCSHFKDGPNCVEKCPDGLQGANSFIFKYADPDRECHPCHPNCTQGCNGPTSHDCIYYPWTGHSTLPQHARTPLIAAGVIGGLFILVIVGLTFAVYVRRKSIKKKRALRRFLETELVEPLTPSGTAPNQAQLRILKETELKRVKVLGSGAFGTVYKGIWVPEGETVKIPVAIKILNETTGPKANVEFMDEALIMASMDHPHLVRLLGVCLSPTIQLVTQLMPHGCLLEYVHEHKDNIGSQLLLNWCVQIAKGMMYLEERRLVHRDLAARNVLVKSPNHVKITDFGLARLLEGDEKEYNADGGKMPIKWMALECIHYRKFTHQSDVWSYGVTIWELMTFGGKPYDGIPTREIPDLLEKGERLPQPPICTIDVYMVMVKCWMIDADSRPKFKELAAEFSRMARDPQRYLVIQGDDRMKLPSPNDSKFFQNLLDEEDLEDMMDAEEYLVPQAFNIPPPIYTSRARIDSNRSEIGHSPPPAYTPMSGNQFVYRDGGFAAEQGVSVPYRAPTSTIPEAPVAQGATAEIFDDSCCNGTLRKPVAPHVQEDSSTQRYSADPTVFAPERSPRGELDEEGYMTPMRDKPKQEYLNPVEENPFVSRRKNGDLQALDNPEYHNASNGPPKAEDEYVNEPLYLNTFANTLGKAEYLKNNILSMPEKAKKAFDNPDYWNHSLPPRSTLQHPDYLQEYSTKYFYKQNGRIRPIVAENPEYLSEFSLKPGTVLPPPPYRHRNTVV

COc1cc2ncnc(Nc3cccc(Cl)c3)c2cc1OC was tested, and the IC50 was 154 nM.
